Assay results: ChEMBL document CHEMBL2346580, “Design, synthesis and SAR investigation of thienosultam derivatives as ADAMTS-5 (aggrecanase-2) inhibitors” (Bioorg Med Chem Lett, 2013)

Columns and labels:
[1] = target: Stromelysin-1 (Homo sapiens) (UniProt P08254); assay: Inhibition of MMP3 (unknown origin)
[2] = target: 72 kDa type IV collagenase (Homo sapiens) (UniProt P08253); assay: Inhibition of MMP2 (unknown origin)
[3] = target: T1, A disintegrin and metalloproteinase with thrombospondin motifs 4 (Homo sapiens) (UniProt O75173); assay: Inhibition of ADAMTS4 (unknown origin)
T1 sequence (whole entry): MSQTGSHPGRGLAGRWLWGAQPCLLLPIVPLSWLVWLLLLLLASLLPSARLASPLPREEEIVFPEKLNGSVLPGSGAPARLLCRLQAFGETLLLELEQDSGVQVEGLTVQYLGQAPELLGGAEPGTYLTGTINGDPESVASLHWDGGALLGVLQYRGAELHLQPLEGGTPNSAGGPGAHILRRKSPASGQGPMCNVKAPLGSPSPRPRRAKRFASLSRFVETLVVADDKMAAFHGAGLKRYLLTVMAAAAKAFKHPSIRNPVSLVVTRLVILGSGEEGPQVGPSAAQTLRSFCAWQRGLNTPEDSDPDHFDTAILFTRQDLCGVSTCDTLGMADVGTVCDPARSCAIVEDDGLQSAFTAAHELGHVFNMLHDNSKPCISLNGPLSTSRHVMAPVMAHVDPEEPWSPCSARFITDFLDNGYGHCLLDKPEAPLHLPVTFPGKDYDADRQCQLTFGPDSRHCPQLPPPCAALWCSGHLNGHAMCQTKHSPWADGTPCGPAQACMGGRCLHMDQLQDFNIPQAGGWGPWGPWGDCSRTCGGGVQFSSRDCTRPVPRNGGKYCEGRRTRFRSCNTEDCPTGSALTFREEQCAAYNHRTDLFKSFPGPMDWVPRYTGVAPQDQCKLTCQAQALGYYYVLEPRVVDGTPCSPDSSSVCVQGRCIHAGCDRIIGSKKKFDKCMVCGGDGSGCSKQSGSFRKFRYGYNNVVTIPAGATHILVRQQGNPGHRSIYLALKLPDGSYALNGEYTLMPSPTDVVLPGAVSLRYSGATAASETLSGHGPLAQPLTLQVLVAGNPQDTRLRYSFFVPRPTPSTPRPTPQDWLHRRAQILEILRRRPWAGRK

[4] = target: T2, A disintegrin and metalloproteinase with thrombospondin motifs 5 (Homo sapiens) (UniProt Q9UNA0); assay: Inhibition of ADAMTS5 (unknown origin) using QF-peptide containing an aggrecanase cleavage site by FRET assay
T2 sequence (whole entry): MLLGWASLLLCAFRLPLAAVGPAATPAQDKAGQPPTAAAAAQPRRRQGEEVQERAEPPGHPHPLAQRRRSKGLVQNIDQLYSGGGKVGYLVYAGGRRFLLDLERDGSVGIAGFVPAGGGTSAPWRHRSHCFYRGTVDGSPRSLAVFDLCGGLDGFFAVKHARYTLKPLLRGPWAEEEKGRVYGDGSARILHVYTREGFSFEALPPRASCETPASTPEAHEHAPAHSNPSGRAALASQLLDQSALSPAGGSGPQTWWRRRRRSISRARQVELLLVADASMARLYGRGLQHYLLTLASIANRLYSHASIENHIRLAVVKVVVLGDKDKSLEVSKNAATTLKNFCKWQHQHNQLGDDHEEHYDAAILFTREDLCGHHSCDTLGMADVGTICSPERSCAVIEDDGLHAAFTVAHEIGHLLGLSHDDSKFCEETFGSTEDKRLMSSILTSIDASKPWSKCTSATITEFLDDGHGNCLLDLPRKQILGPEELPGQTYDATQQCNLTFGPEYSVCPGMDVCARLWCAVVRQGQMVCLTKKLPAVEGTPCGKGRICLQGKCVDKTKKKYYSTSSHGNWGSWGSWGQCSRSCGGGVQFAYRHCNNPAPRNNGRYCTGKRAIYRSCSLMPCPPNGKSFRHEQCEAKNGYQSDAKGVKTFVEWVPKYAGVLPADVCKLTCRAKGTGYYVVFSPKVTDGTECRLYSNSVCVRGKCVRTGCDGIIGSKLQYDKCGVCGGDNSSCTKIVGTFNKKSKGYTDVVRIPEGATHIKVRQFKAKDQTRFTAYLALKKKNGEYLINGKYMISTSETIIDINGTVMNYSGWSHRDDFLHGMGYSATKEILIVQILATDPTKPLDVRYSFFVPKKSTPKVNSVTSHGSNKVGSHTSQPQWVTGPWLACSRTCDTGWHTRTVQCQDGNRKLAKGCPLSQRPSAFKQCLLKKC

[5] = AUC (0 to infinity) in Sprague-Dawley rat at 1 mg/kg, iv and 5 mg/kg, po; assay type: ADME, organism-based; conditions: plasma
Homo sapiens = organism: Homo sapiens; assay: Selectivity ratio of inhibition of MMP2 (unknown origin) to ADAMTS5 (unknown origin)
[6] = Half life in Sprague-Dawley rat at 1 mg/kg, iv and 5 mg/kg, po; assay type: ADME, organism-based; conditions: in vivo
[7] = target: Matrix metalloproteinase-14 (Homo sapiens) (UniProt P50281); assay: Inhibition of MMP14 (unknown origin)
Rattus norvegicus [8] = assay: (§1) Oral bioavailability in Sprague-Dawley rat at 5 mg/kg; assay type: ADME, organism-based; conditions: in vivo
[9] = Volume of distribution at steady state in Sprague-Dawley rat at 1 mg/kg, iv and 5 mg/kg, po; assay type: ADME, organism-based; conditions: in vivo, read-out: Vdss
Rattus norvegicus [10] = assay: Cmax in Sprague-Dawley rat at 1 mg/kg, iv and 5 mg/kg, po; assay type: ADME, organism-based; conditions: in vivo
[11] = Clearance in Sprague-Dawley rat at 1 mg/kg, iv and 5 mg/kg, po; assay type: ADME, organism-based; conditions: in vivo
[12] = as §1; assay type: ADME, organism-based; conditions: Sprague-Dawley, in vivo
[13] = target: T1, A disintegrin and metalloproteinase with thrombospondin motifs 4 (Homo sapiens); assay: Inhibition of ADAMTS4 (unknown origin) at 10 uM
[14] = target: T2, A disintegrin and metalloproteinase with thrombospondin motifs 5 (Homo sapiens); assay: Inhibition of ADAMTS5 (unknown origin) using QF-peptide containing an aggrecanase cleavage site at 10 uM by FRET assay

Sequence of 72 kDa type IV collagenase (Homo sapiens) (P08253 110-660 limits assumed): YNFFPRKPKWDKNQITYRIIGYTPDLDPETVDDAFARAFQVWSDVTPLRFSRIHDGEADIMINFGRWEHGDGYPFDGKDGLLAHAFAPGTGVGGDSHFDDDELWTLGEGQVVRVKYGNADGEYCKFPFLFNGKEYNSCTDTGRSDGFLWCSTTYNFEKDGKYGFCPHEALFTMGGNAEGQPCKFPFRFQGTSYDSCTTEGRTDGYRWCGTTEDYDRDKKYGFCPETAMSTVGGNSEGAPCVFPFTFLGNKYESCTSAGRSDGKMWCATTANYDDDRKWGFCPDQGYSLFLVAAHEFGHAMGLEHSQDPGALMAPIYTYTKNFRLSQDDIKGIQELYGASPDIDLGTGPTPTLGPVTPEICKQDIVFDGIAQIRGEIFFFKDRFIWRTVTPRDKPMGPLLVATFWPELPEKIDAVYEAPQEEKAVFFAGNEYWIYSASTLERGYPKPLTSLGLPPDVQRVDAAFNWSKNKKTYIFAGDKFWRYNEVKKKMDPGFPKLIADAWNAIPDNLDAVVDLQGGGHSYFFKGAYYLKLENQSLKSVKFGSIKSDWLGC
Sequence of Stromelysin-1 (Homo sapiens) (P08254 100-477 limits assumed): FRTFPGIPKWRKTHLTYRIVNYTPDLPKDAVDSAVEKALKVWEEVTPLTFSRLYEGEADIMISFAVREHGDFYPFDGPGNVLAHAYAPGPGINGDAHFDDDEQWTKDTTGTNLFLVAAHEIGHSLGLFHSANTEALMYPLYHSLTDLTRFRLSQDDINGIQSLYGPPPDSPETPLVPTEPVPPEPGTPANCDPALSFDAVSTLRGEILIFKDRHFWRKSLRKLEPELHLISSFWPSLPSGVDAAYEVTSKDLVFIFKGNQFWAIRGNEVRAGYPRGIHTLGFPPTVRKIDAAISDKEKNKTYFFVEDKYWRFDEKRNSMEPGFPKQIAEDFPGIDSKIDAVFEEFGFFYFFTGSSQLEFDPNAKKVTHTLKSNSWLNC

Row | INH [2] [µM] | INH [4] [µM] | Ratio (Homo sapiens) | SMILES | also measured
1 | 0.04 | 8.2 |  | CC(C)[C@H](NS(=O)(=O)c1ccc(-c2ccccc2)cc1)C(=O)O | INH [1]: 0.038 µM; INH [3]: 3 µM
2 | > 30 | 0.4 | > 75 | CCC(C(=O)O)N1Cc2sc(-c3ccc(-c4cnn(Cc5ccccc5)c4)cc3)cc2S1(=O)=O (racemic) | AUC(0-inf) [5]: 4730 ng·h/mL; INH [1]: > 30 µM; half-life [6]: 1.8 h; INH [7]: > 30 µM; bioavailability [12]: 47%; Vd [9]: 0.33 L/kg; INH [3]: 8 µM; Cmax (Rattus norvegicus [10]): 3090 ng/mL; clearance [11]: 278 mL/min/kg
3 | 0.3 |  |  | CCC(C(=O)NO)N1Cc2sc(-c3ccc(-c4ccccc4)cc3)cc2S1(=O)=O (racemic) | inhibition [13]: 1.7%; INH [1]: 20 µM; INH [7]: < 30 µM; inhibition [14]: 3%
4 | 0.03 | 2.1 |  | CCC(C(=O)NO)N1Cc2sc(-c3ccccc3)cc2S1(=O)=O (racemic) | INH [1]: 5.1 µM; INH [7]: 1.2 µM; INH [3]: 1.1 µM
5 | > 30 | 7 | > 4.5 | CCC(C(=O)O)N1Cc2sc(-c3ccc(-c4ccc(N(C)C)nc4)cc3)cc2S1(=O)=O (racemic) | 
6 | 16.5 | 1 | 16.5 | CCC(C(=O)O)N1Cc2sc(-c3ccc(-c4ccc5ccn(C)c5c4)cc3)cc2S1(=O)=O (racemic) | 
7 | 1.8 | 2.1 | 0.78 | CCC(C(=O)O)N1Cc2sc(-c3ccc(-c4ccccc4)cc3)cc2S1(=O)=O (racemic) | inhibition [13]: 1.6%; INH [1]: 1.2 µM; INH [7]: < 5.1 µM; INH [3]: 1.1 µM
8 | > 30 | 2.3 | > 13 | CCC(C(=O)O)N1Cc2sc(-c3ccc(-c4ccsc4)cc3)cc2S1(=O)=O (racemic) | 
9 | 2 | 3.2 | 0.63 | CCC(C(=O)O)N1Cc2sc(/C=C/c3ccc(C(F)(F)F)cc3)cc2S1(=O)=O (racemic) | 
10 | > 30 | 9.3 | > 3.23 | CCC(C(=O)O)N1Cc2sc(C#Cc3ccccn3)cc2S1(=O)=O (racemic) | 

Continued, compound first:

Row | SMILES | INH [2] [µM] | INH [4] [µM] | Ratio (Homo sapiens) | also measured
11 | CCC(C(=O)O)N1Cc2sc(C#Cc3ccc(N(C)C)cc3)cc2S1(=O)=O (racemic) | > 30 | 1.5 | > 20 | AUC(0-inf) [5]: 106000 ng·h/mL; INH [1]: > 30 µM; half-life [6]: 2.8 h; INH [7]: > 30 µM; F (Rattus norvegicus [8]): 179%; Vd [9]: 0.34 L/kg; INH [3]: > 10 µM; Cmax (Rattus norvegicus [10]): 29500 ng/mL; clearance [11]: 58.3 mL/min/kg
12 | CCC(C(=O)O)N1Cc2sc(-c3ccc(-c4ccc(N(C)Cc5ccccc5)nc4)cc3)cc2S1(=O)=O (racemic) | > 30 | 1 | > 30 | 
13 | CCC(C(=O)O)N1Cc2sc(-c3ccc(-c4ccc5cnn(C)c5c4)cc3)cc2S1(=O)=O (racemic) | 4 | 0.3 | 13.3 | 
14 | CCC(C(=O)O)N1Cc2sc(-c3ccc(-c4cccnc4)cc3)cc2S1(=O)=O (racemic) | > 30 | > 10 |  | 
15 | CCC(C(=O)O)N1Cc2sc(-c3ccc(-c4cccs4)cc3)cc2S1(=O)=O (racemic) | > 30 | 1.3 | > 23 | 
16 | CCC(C(=O)O)N1Cc2sc(-c3ccc(-c4cnn(C)c4)cc3)cc2S1(=O)=O (racemic) | > 30 | > 10 |  | 
17 | CCC(C(=O)O)N1Cc2sc(-c3ccc(/C=C/c4ccccc4)cc3)cc2S1(=O)=O (racemic) | 3.9 | 1.4 | 2.79 | 
18 | CCC(C(=O)O)N1Cc2sc(-c3ccccc3)cc2S1(=O)=O (racemic) | 16 |  |  | inhibition [13]: 1.7%; INH [1]: 12 µM; INH [7]: > 30 µM; inhibition [14]: 3%
19 | CCC(C(=O)O)N1Cc2sc(-c3ccn(C#Cc4ccccc4)n3)cc2S1(=O)=O (racemic) | > 30 | 4 | > 7.5 | 
20 | CCC(C(=O)O)N1Cc2sc(-c3ccn(Cc4ccccc4)n3)cc2S1(=O)=O (racemic) | > 30 |  |  | inhibition [14]: 43.2%
21 | CCC(C(=O)O)N1Cc2sc(C#CCC3CCCCC3)cc2S1(=O)=O (racemic) | > 30 | 8.9 | > 3.37 | 
22 | CCC(C(=O)O)N1Cc2sc(C#Cc3cc(C(F)(F)F)cc(C(F)(F)F)c3)cc2S1(=O)=O (racemic) | > 30 | 4.9 | > 6.12 | 
23 | CCC(C(=O)O)N1Cc2sc(C#Cc3ccc(-c4ccccc4)cc3)cc2S1(=O)=O (racemic) | > 30 | 1.5 | > 20 | 
24 | CCC(C(=O)O)N1Cc2sc(N3CCN(c4ccccc4)CC3)cc2S1(=O)=O (racemic) | > 30 |  |  | inhibition [14]: 9%
